Laboratory results from patent US11040963B2 (priority 2017, dated 2021).
pIC50: −log10 of the molar value.

Key:
[1] = in vitro; settings: dog, Cytotoxicity (pCC50) MDCK
[2] = target: HA H1 A/California/07/09 (Influenza A virus (A/California/07/2009(H1N1)), UniProt C3W5X2); experiment: biochemical; settings: Competition binding (AlphaLISA), pIC50 H1 A/California/07/09
[3] = system: H1N1 A/California/07/09; experiment: microbe, parasite or virus in culture; format: cell-based, influenza A virus; settings: Influenza A virus, H1N1, MDCK, 96 h, read-out: Virus neutralization assay (VNA), pEC50 H1N1 A/California/07/09 (converted)
[4] = target: HA H1 A/New Caledonia/20/99 (Influenza A virus (A/New Caledonia/20/1999(H1N1)), UniProt Q6WG00); experiment: biochemical; settings: Competition binding (AlphaLISA), pIC50 H1 A/New Caledonia/20/99
[5] = system: H1N1 A/New Caledonia/20/99; experiment: microbe, parasite or virus in culture; format: cell-based, influenza A virus; settings: for EC50: Influenza A virus, H1N1, MDCK, 96 h, read-out: Virus neutralization assay (VNA), pEC50 H1N1 A/New Caledonia/20/99 (converted)
[6] = system: H5N1 A/Vietnam/1203/04; experiment: microbe, parasite or virus in culture; format: cell-based, influenza A virus; settings: Influenza A virus, H5N1, MDCK, 96 h, read-out: Virus neutralization assay (VNA), pEC50 H5N1 A/Vietnam/1203/04, MDCK cells, 96 h, CPE by ATPlite (converted); average of repeats
[7] = target: HA H5 A/Vietnam/1203/04 (Influenza A virus (A/Vietnam/1203/2004(H5N1)), UniProt Q5EP31); experiment: biochemical; settings: Competition binding (AlphaLISA), pIC50 H5 A/Vietnam/1203/04
[8] = system: H1N1 A/PR/8/34-MA; experiment: microbe, parasite or virus in culture; format: cell-based, influenza A virus; settings: Influenza A virus, MDCK, 96 h, read-out: Virus neutralization assay (VNA), pEC50 H1N1 A/PR/8/34-MA (converted)
[9] = system: MDCK cells; settings: dog

Structure (SMILES)	CC50 [1] [µM]	pIC50 [2]	EC50 [3] [µM]	pIC50 [4]	EC50 [5] [nM]	EC50 [6] [µM]	pIC50 [7]	EC50 [8] [µM]	Cytotoxicity (pCC50) MDCK [9]	Virus neutralization assay (VNA), pEC50 H1N1 A/New Caledonia/20/99 [5]
COC(=O)C(c1ccccc1)N1CCN(C(=O)c2cccc(-c3nc4ccc(OC)cc4[nH]3)c2)CC1 (stereo not drawn) [Example 121]	7.94	6.70	3.16	6.90	1580	39.8	5.80	–	–	–
COC(=O)C(c1ccncc1)N1CCN(C(=O)c2cccc(-c3nc4ccc(OC)cc4s3)c2)CC1 (stereo not drawn) [Example 122]	10	6.40	3.98	6.70	1580	12.6	5.60	–	–	–
COC(=O)C(c1ccccc1)C1CCN(C(=O)c2cccc(-c3nc4ccc(OC)cc4[nH]3)c2)CC1 (stereo not drawn) [Example 123]	> 50.1	6.20	5.01	6.30	1580	50.1	4.90	2.51	–	–
COc1ccc2nc(-c3cccc(C(=O)N4CCN([C@@H](c5ccccc5)c5nnc(C)o5)CC4)c3)sc2c1 [Example 124]	15.8	7.20	0.501	7.10	2000	3.98	6.20	–	–	–
Cc1nnc(C(c2ccccc2)N2CCN(C(=O)c3cccc(-c4nc5cc(Cl)ccc5o4)c3)CC2)o1 (stereo not drawn) [Example 125]	25.1	6.80	1.58	6.80	2000	50.1	4.90	–	–	–
O=C(c1cccc(-c2nc3cc(C(F)(F)F)ccc3o2)c1)N1CCN(C(c2ccccc2)c2nnc(C3CC3)o2)CC1 (stereo not drawn) [Example 127]	> 50.1	7.10	2.51	6.60	2000	20	5.10	–	–	–
COC(=O)C(c1ccccc1)N1CCN(C(=O)c2cccc(-c3ccc(OC)cc3)c2)CC1 (stereo not drawn) [Example 128]	–	6.60	3.16	6.80	–	10	5.50	–	<4.3	5.7
Cc1nnc(C(c2ccccc2)N2CCN(C(=O)c3cccc(-c4nc5cccnc5o4)c3)CC2)o1 (stereo not drawn) [Example 129]	> 50.1	6.20	3.98	6.30	2000	> 50.1	4.50	–	–	–
COC(=O)C(c1ccccc1)C1CCN(C(=O)c2cccc(-c3ccc(OC)cc3)c2)CC1 (stereo not drawn) [Example 130]	39.8	6.00	15.8	6.20	2000	39.8	5.00	12.6	–	–
COc1ccc2nc(-c3cccc(C(=O)N4CCN(C5(c6ccccc6)CCN(C)C5=O)CC4)c3)sc2c1 (stereo not drawn) [Example 131]	20	5.50	1.58	5.40	2510	> 50.1	4.40	–	–	–
COC(=O)C(c1ccccc1)N1CCCN(C(=O)c2cccc(-c3nc4ccc(OC)cc4s3)c2)CC1 (stereo not drawn) [Example 132]	> 50.1	6.10	39.8	6.20	2510	> 50.1	4.80	–	–	–
Cn1nnc([C@@H](c2ccccc2)N2CCN(C(=O)c3cc(-c4nc5cc(OC(F)(F)F)ccc5o4)ccn3)CC2)n1 [Example 133]	> 50.1	7.80	0.0631	8.00	25.1	0.631	6.60	–	–	–
Cc1nc([C@@H](c2ccccc2)N2CCN(C(=O)c3cc(-c4nc5cc(OC(F)(F)F)ccc5o4)ccn3)CC2)n[nH]1 [Example 134]	> 50.1	7.40	0.631	7.80	251	3.98	6.80	–	–	–
